The record followed here is US10323022B2, “Pyrrolidinyl urea, pyrrolidinyl thiourea and pyrrolidinyl guanidine compounds as TrkA kinase inhibitors” (Array BioPharma Inc., priority 2011, dated 2019).

The term IC50 denotes the concentration that gives 50% inhibition. A low value points to inhibition by little substance.

The target in this test is TrkA (Homo sapiens (Human), UniProt P04629). Put plainly: TrkA Omnia Assay. The conditions noted are these: averaged IC50; 20 nM enzyme, 500 μM ATP, 10 μM peptide substrate. Type of test: biochemical. In outline: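 Recombinant TrkA (20 nM) preincubated 10 min at ambient temperature with compound, then Omnia Tyr Peptide #4 (10 μM) and ATP (500 μM) added in 25 mM MOPS pH 7.5, 5 mM MgCl2, 0.005% Triton X-100. Fluorescence (ex 360/em 485 nm) followed continuously for 70 min; IC50 from initial rates by 4- or 5-parameter logistic fit.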
Sequence of TrkA (P04629 33-796): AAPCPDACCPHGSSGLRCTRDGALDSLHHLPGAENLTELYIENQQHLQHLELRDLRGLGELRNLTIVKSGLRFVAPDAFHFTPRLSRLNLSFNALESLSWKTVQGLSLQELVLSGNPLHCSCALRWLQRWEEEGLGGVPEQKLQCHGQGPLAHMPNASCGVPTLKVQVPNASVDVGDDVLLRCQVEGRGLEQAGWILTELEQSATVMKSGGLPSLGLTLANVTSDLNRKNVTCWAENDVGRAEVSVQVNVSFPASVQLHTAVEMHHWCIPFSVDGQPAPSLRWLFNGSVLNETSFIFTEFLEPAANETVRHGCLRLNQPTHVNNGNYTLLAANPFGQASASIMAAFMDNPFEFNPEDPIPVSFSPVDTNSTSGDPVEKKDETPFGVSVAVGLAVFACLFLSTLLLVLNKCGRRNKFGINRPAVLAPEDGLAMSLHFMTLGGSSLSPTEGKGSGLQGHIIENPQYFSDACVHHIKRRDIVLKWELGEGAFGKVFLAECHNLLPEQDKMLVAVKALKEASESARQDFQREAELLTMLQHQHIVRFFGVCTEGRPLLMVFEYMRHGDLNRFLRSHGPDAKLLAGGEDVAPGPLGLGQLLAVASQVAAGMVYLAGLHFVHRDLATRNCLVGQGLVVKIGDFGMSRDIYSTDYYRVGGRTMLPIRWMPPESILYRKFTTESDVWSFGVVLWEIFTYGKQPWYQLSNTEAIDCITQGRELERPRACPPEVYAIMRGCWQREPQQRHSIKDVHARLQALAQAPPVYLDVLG
The molecule `COCCN1C[C@@H](NC(=O)Nc2c(C)c(-c3nc(C)no3)nn2-c2ccccc2)[C@H](c2ccc(F)c(F)c2)C1` [Example 298, 1-((3S,4R)-4-(3,4-difluorophenyl)-1-(2-methoxyethyl)pyrrolidin-3-yl)-3-(4-methyl-3-(3-methyl-1,2,4-oxadiazol-5-yl)-1-phenyl-1H-pyrazol-5-yl)urea] yielded an IC50 of less than 100 nM.
The figure for `COCCN1C[C@@H](NC(=O)Nc2c(C)c(-c3nc(C(F)(F)F)no3)nn2-c2ccccc2)[C@H](c2ccc(F)c(F)c2)C1` [Example 299, 1-((3S,4R)-4-(3,4-difluorophenyl)-1-(2-methoxyethyl)pyrrolidin-3-yl)-3-(4-methyl-1-phenyl-3-(3-(trifluoromethyl)-1,2,4-oxadiazol-5-yl)-1H-pyrazol-5-yl)urea] is less than 100 nM; for `COCCN1C[C@@H](NC(=O)Nc2c(C)c(-c3nc(C(F)(F)F)no3)nn2-c2ccccc2)[C@H](c2ccc(F)cc2)C1` [Example 300, 1-((3S,4R)-4-(4-fluorophenyl)-1-(2-methoxyethyl)pyrrolidin-3-yl)-3-(4-methyl-1-phenyl-3-(3-(trifluoromethyl)-1,2,4-oxadiazol-5-yl)-1H-pyrazol-5-yl)urea] it is less than 100 nM; for `COCCN1C[C@@H](NC(=O)Nc2c(C)c(-c3cc(C)n(C)n3)nn2-c2ccccc2)[C@H](c2ccc(F)c(F)c2)C1` [Example 305, 1-((3S,4R)-4-(3,4-difluorophenyl)-1-(2-methoxyethyl)pyrrolidin-3-yl)-3-(1′,4,5′-trimethyl-1-phenyl-1H,1′H-[3,3′-bipyrazol]-5-yl)urea] it is less than 100 nM.
For the molecule `COCCN1C[C@@H](NC(=O)Nc2c(C)c(-c3cc(C)n(C)n3)nn2-c2ccccc2)[C@H](c2cc(F)cc(F)c2)C1` [Example 306, 1-((3S,4R)-4-(3,5-difluorophenyl)-1-(2-methoxyethyl)pyrrolidin-3-yl)-3-(1′,4,5′-trimethyl-1-phenyl-1H,1′H-[3,3′-bipyrazol]-5-yl)urea], the IC50 was less than 100 nM.
Take `COCCN1C[C@@H](NC(=O)Nc2c(C)c(-c3cc(C)n(C)n3)nn2-c2ccccc2)[C@H](c2ccc(F)cc2)C1` [Example 307, 1-((3S,4R)-4-(4-fluorophenyl)-1-(2-methoxyethyl)pyrrolidin-3-yl)-3-(1′,4,5′-trimethyl-1-phenyl-1H,1′H-[3,3′-bipyrazol]-5-yl)urea]: the IC50 is less than 100 nM.
The figure for `COCCN1C[C@@H](NC(=O)Nc2c(C)c(-c3cc(C)nn3C)nn2-c2ccccc2)[C@H](c2ccc(F)c(F)c2)C1` [Example 308, 1-((3S,4R)-4-(3,4-difluorophenyl)-1-(2-methoxyethyl)pyrrolidin-3-yl)-3-(2′,4,5′-trimethyl-1-phenyl-1H,2′H-[3,3′-bipyrazol]-5-yl)urea] is less than 100 nM.
The figure for `COCCN1C[C@@H](NC(=O)Nc2c(C3CC3)c(-c3cnn(C)c3)nn2-c2ccccc2)[C@H](c2ccc(F)c(F)c2)C1` [Example 309, 1-(4-cyclopropyl-1′-methyl-1-phenyl-1H,1′H-[3,4′-bipyrazol]-5-yl)-3-((3S,4R)-4-(3,4-difluorophenyl)-1-(2-methoxyethyl)pyrrolidin-3-yl)urea] is less than 100 nM.
The figure for `COCCN1C[C@@H](NC(=O)Nc2c(C(C)C)c(-c3cnn(C)c3)nn2-c2ccccc2)[C@H](c2ccc(F)c(F)c2)C1` [Example 310, 1-((3S,4R)-4-(3,4-difluorophenyl)-1-(2-methoxyethyl)pyrrolidin-3-yl)-3-(4-isopropyl-1′-methyl-1-phenyl-1H,1′H-[3,4′-bipyrazol]-5-yl)urea] is 100 to 1000 nM.
Regarding `CCc1c(-c2cnn(C)c2)nn(-c2ccccc2)c1NC(=O)N[C@@H]1CN(CCOC)C[C@H]1c1ccc(F)c(F)c1` [Example 311, 1-((3S,4R)-4-(3,4-difluorophenyl)-1-(2-methoxyethyl)pyrrolidin-3-yl)-3-(4-ethyl-1′-methyl-1-phenyl-1H,1′H-[3,4′-bipyrazol]-5-yl)urea], the IC50 is less than 100 nM.
`COCCN1C[C@@H](NC(=O)Nc2c(C)c(-c3cnn(C)c3)nn2-c2ccc(F)cc2)[C@H](c2ccc(F)c(F)c2)C1` [Example 312, 1-((3S,4R)-4-(3,4-difluorophenyl)-1-(2-methoxyethyl)pyrrolidin-3-yl)-3-(1-(4-fluorophenyl)-1′,4-dimethyl-1H,1′H-[3,4′-bipyrazol]-5-yl)urea] returned a half-maximal inhibitory concentration (IC50) of less than 100 nM.
The figure for `COCCN1C[C@@H](NC(=O)Nc2c(C)c(-c3cnn(C)c3)nn2-c2cccc(F)c2)[C@H](c2ccc(F)c(F)c2)C1` [Example 313, 1-((3S,4R)-4-(3,4-difluorophenyl)-1-(2-methoxyethyl)pyrrolidin-3-yl)-3-(1-(3-fluorophenyl)-1′,4-dimethyl-1H,1′H-[3,4′-bipyrazol]-5-yl)urea] is less than 100 nM.
The figure for `COCCN1C[C@@H](NC(=O)Nc2c(C)c(-c3cnn(C)c3)nn2-c2ccccc2F)[C@H](c2ccc(F)c(F)c2)C1` [Example 314, 1-((3S,4R)-4-(3,4-difluorophenyl)-1-(2-methoxyethyl)pyrrolidin-3-yl)-3-(1-(2-fluorophenyl)-1′,4-dimethyl-1H,1′H-[3,4′-bipyrazol]-5-yl)urea] is less than 100 nM.
In the case of `COCCN1C[C@@H](NC(=O)Nc2c(C)c(-c3cnn(C)c3)nn2-c2ccc(F)cc2)[C@H](c2ccc(F)cc2)C1` [Example 318, 1-((3S,4R)-4-(4-fluorophenyl)-1-(2-methoxyethyl)pyrrolidin-3-yl)-3-(1-(4-fluorophenyl)-1′,4-dimethyl-1H,1′H-[3,4′-bipyrazol]-5-yl)urea], the IC50 fell in the range of 100 to 1000 nM.
The molecule `COCCN1C[C@@H](NC(=O)Nc2c(C)c(-c3cnn(C)c3)nn2-c2ccc(F)c(Cl)c2)[C@H](c2ccc(F)cc2)C1` [Example 322] returned an IC50 of less than 100 nM.
The molecule `COCCN1C[C@@H](NC(=O)Nc2c(C)c(-c3cnn(C)c3)nn2-c2cccc(Cl)c2F)[C@H](c2ccc(F)cc2)C1` [Example 323] displayed an IC50 of less than 100 nM.
Regarding `COCCN1C[C@@H](NC(=O)Nc2c(C)c(-c3cnn(C)c3)nn2-c2ccccc2)[C@H](c2ccc(F)cc2F)C1` [Example 324, 1-((3S,4R)-4-(2,4-difluorophenyl)-1-(2-methoxyethyl)pyrrolidin-3-yl)-3-(1′,4-dimethyl-1-phenyl-1H,1′H-[3,4′-bipyrazol]-5-yl)urea], the IC50 was less than 100 nM.
For `COCCN1C[C@@H](NC(=O)Nc2c(C)c(-c3cnn(C)c3)nn2-c2ccccc2)[C@H](c2ccc(C)cc2)C1` [Example 327, 1-(1′,4-dimethyl-1-phenyl-1H,1′H-[3,4′-bipyrazol]-5-yl)-3-((3S,4R)-1-(2-methoxyethyl)-4-(p-tolyl)pyrrolidin-3-yl)urea], the IC50 was less than 100 nM.
The figure for `COCCN1C[C@@H](NC(=O)Nc2c(C)c(-c3ccccc3)nn2-c2ccccc2)[C@H](c2ccc(F)c(F)c2)C1` [Example 328, 1-((3S,4R)-4-(3,4-difluorophenyl)-1-(2-methoxyethyl)pyrrolidin-3-yl)-3-(4-methyl-1,3-diphenyl-1H-pyrazol-5-yl)urea] is less than 100 nM.
Consider `COCCN1C[C@@H](NC(=O)Nc2c(C)c(-c3ccccc3)nn2-c2ccccc2)[C@H](c2cc(F)cc(F)c2)C1` [Example 329, 1-((3S,4R)-4-(3,5-difluorophenyl)-1-(2-methoxyethyl)pyrrolidin-3-yl)-3-(4-methyl-1,3-diphenyl-1H-pyrazol-5-yl)urea], for which the IC50 is less than 100 nM.
Take `COCCN1C[C@@H](NC(=O)Nc2c(C)c(-c3ccccc3)nn2-c2ccccc2)[C@H](c2cc(F)c(F)c(F)c2)C1` [Example 330, 1-((3S,4R)-4-(3,4,5-trifluorophenyl)-1-(2-methoxyethyl)pyrrolidin-3-yl)-3-(4-methyl-1,3-diphenyl-1H-pyrazol-5-yl)urea]: the IC50 is less than 100 nM.
In turn, `COCCN1C[C@@H](NC(=O)Nc2c(C)c(-c3ccccc3)nn2-c2ccccc2)[C@H](c2ccc(F)cc2)C1` [Example 331, 1-((3S,4R)-4-(4-fluorophenyl)-1-(2-methoxyethyl)pyrrolidin-3-yl)-3-(4-methyl-1,3-diphenyl-1H-pyrazol-5-yl)urea] returned an IC50 of less than 100 nM.
The figure for `COCCN1CC(c2cnn(C)c2)[C@H](NC(=O)Nc2c(Br)c(C)nn2-c2ccccc2)C1` (stereo partly shown) [Example 332] is 100 to 1000 nM; for `COCCN1C[C@@H](NC(=O)Nc2c(C)c(C)nn2-c2ccccc2)[C@H](c2cccc(C(F)(F)F)c2)C1` [Example 336, 1-(3,4-dimethyl-1-phenyl-1H-pyrazol-5-yl)-3-((3S,4R)-1-(2-methoxyethyl)-4-(3-(trifluoromethyl)phenyl)pyrrolidin-3-yl)urea] it is less than 100 nM; for `COCCN1C[C@@H](NC(=O)Nc2c3c(nn2-c2ccccc2)CCC3)[C@H](c2cncc(F)c2)C1` [Example 337, 1-((3S,4R)-4-(5-fluoropyridin-3-yl)-1-(2-methoxyethyl)pyrrolidin-3-yl)-3-(2-phenyl-2,4,5,6-tetrahydrocyclopenta[c]pyrazol-3-yl)urea] it is less than 100 nM.
The figure for `COCCN1C[C@H](NC(=O)Nc2c3c(nn2-c2ccccc2)CCC3)[C@@H](c2cncc(F)c2)C1` [Example 338, 1-((3R,4S)-4-(5-fluoropyridin-3-yl)-1-(2-methoxyethyl)pyrrolidin-3-yl)-3-(2-phenyl-2,4,5,6-tetrahydrocyclopenta[c]pyrazol-3-yl)urea] is less than 100 nM; for `COCCN1C[C@@H](NC(=O)Nc2c(C)c(OCCF)nn2-c2ccccc2)[C@H](c2cncc(F)c2)C1` [Example 339, 1-(3-(2-fluoroethoxy)-4-methyl-1-phenyl-1H-pyrazol-5-yl)-3-((3S,4R)-4-(5-fluoropyridin-3-yl)-1-(2-methoxyethyl)pyrrolidin-3-yl)urea] it is less than 100 nM.
`COCCN1C[C@H](NC(=O)Nc2c(C)c(OCCF)nn2-c2ccccc2)[C@@H](c2cncc(F)c2)C1` [Example 340, 1-(3-(2-fluoroethoxy)-4-methyl-1-phenyl-1H-pyrazol-5-yl)-3-((3R,4S)-4-(5-fluoropyridin-3-yl)-1-(2-methoxyethyl)pyrrolidin-3-yl)urea] showed an IC50 of 100 to 1000 nM.
